Measured values as given in patent EP0081425B1, “Pharmaceutical compositions having normolipemic properties and containing compounds of the n-substituted benzenesulfonamide type” (priority 1981, dated 1983).
Read-outs that look alike come from different tables or passages of the source.

System: hyperlipidémie provoquée par l'administration de TRITON®
Assay: Triton test: hyperlipidemia induced by i.v. TRITON W.R. in fasted rats
Assay type: in vivo, rats WISTAR mâles
Conditions: for Lipides totaux Score (par rapport au clofibrate compté pour 1) / Cholestérol estérifié Score (par rapport au clofibrate compté pour 1) / Cholestérol total Score (par rapport au clofibrate compté pour 1) / Triglycérides Score (par rapport au clofibrate compté pour 1): ratio to clofibrate of the same series; for inhibition in vivo at 250 mg/kg: Rattus norvegicus, po, blood assayed 6 h and/or 24 h later
Excerpt: Dans une première série d'expériences, des produits ont été testés sur une hyperlipidémie provoquée par l'administration de TRITON® selon le protocole suivant.
Les essais ont été réalisés sur des groupes de cinq rats WISTAR mâles dont le poids varie de 150 à 175 g.
Pour effectuer ces essais, on provoque une hyperlipidémie chez les animaux, au moyen du produit commercialisé par la Société ROHM and HAAS sous le nom de TRITON® W. R.
On observe, sur cette hyperlipidémie, les effets obtenus par administration des substances actives selon l'invention.
Les essais sont réalisés comme suit : • les rats sont mis à jeûner pendant 18 heures, puis on administre le TRITON® W.R. par voie intraveineuse en solution aqueuse à 10 % à raison de 200 mg/kg ;
6 heures et/ou 24 heures plus tard, on effectue les dosages sur le sang de façon traditionnelle.
Dans la première colonne, on a indiqué le numéro du composé testé.
Dans la deuxième colonne, on a indiqué le nombre d'animaux qui ont été soumis au test.
Dans les quatre dernières colonnes, on a indiqué les résultats relatifs respectivement : • aux lipides totaux, • aux triglycérides, • au cholestérol total, • au cholestérol estérifié.
Dans chacune de ces colonnes, on indique : • a) le pourcentage de diminution par rapport au témoin TRITON; • b) le score par rapport au clofibrate de référence, c'est-à-dire le rapport de l'intensité de l'activité du produit testé vis-à-vis de celle,de l'activité au clofibrate comptée pour 1.

[1] = 250 mg/kg oral, given with TRITON W.R. 200 mg/kg i.v., read-out: Cholestérol estérifié % (pourcentage de diminution par rapport au témoin TRITON)
[2] = 250 mg/kg oral, given with TRITON W.R. 200 mg/kg i.v., read-out: Cholestérol total % (pourcentage de diminution par rapport au témoin TRITON)
[3] = 250 mg/kg oral, given with TRITON W.R. 200 mg/kg i.v., read-out: Triglycérides % (pourcentage de diminution par rapport au témoin TRITON)
[4] = read-out: Lipides totaux % (pourcentage de diminution par rapport au témoin TRITON), 250 mg/kg oral, given with TRITON W.R. 200 mg/kg i.v.

Row | SMILES | Lipides totaux Score (par rapport au clofibrate compté pour 1) (250 mg/kg oral) | inhibition in vivo at 250 mg/kg [1] | inhibition in vivo at 250 mg/kg [2] | inhibition in vivo at 250 mg/kg [3] | inhibition in vivo at 250 mg/kg [4] | Cholestérol estérifié Score (par rapport au clofibrate compté pour 1) (250 mg/kg oral) | Cholestérol total Score (par rapport au clofibrate compté pour 1) (250 mg/kg oral) | Triglycérides Score (par rapport au clofibrate compté pour 1) (250 mg/kg oral)
1 | COc1ccc(N)cc1S(=O)(=O)N(C)CCO [compound 328] | 0,46 | 0% | 0% | 0% | 20.7% | – | – | –
2 | COc1ccc(Cl)cc1S(=O)(=O)NCC(C)O (stereo not shown) [Composé n° 318] | 0,77 | 32% | 14.7% | 0% | 10.7% | 0,65 | 1,55 | –
3 | COc1ccc(Cl)cc1S(=O)(=O)N(C)CCO [compound 324] | 0,58 | 22.6% | 26.2% | 19.4% | 25.9% | 0,52 | 2,85 | –
4 | COc1ccc(Cl)cc1S(=O)(=O)NCCO [Composé n° 276] | – | 0% | 4.4% | 24.8% | – | – | 0,25 | 0,48
5 | CCC(CO)NS(=O)(=O)c1cc(Br)ccc1OC (stereo not shown) [Composé n° 645] | 3,62 | 19.4% | 32.6% | 36.8% | 42.3% | 0,50 | 1,54 | 1,21
6 | COc1ccc([N+](=O)[O-])cc1S(=O)(=O)NCC(C)O (stereo not shown) [compound 321] | 2,84 | 46.7% | 13.7% | 76% | 39.2% | 0,95 | 1,44 | 1,05
7 | COc1ccc([N+](=O)[O-])cc1S(=O)(=O)NCCO [compound 279] | – | 0% | 0% | 10.2% | – | – | – | 0,20
8 | COc1cc(N)c(Cl)cc1S(=O)(=O)N(C)CCO [compound 330] | – | 41.9% | 0% | 0% | – | 0,96 | – | –
9 | COc1cc([N+](=O)[O-])c(Cl)cc1S(=O)(=O)NCCO [compound 281, chloro-5 N-(hydroxy-2 éthyl) méthoxy-2 nitro-4 benzènesulfonamide] | 0,25 | 4.9% | 13.3% | 0% | 11.3% | 0,13 | 0,75 | –
10 | CCC(CO)NS(=O)(=O)c1ccc(N)cc1OC (stereo not shown) [compound 313] | 0,77 | 39.4% | 39.3% | 0% | 19.4% | – | – | –
11 | COc1cc([N+](=O)[O-])c(Cl)cc1S(=O)(=O)N(C)CCO [compound 329] | 0,84 | 0% | 0% | 40% | 37.6% | – | – | –
12 | COc1ccc([N+](=O)[O-])cc1S(=O)(=O)N(C)CCO [compound 327] | 0,53 | 0% | 0% | 9% | 23.6% | – | – | –
